Data reported in patent US20210040062A1, “AZOLE-SUBSTITUTED PYRIDINE COMPOUND” (TAISHO PHARMACEUTICAL CO., LTD., priority 2016, published 2021).

Experiments:
human CYP4F2 = biological target: T1, human CYP4F2 (Homo sapiens, UniProt P78329); assay: CYP4F2 inhibition test (Test Example 1); type: biochemical; settings: Escherichia coli membrane fraction expressing human CYP4F2, 2.5 μM luciferine derivative, room temperature 60 minutes, luminescence
T1 construct: host or cells: Escherichia coli (membrane fraction)
T1 sequence (P78329 5-520): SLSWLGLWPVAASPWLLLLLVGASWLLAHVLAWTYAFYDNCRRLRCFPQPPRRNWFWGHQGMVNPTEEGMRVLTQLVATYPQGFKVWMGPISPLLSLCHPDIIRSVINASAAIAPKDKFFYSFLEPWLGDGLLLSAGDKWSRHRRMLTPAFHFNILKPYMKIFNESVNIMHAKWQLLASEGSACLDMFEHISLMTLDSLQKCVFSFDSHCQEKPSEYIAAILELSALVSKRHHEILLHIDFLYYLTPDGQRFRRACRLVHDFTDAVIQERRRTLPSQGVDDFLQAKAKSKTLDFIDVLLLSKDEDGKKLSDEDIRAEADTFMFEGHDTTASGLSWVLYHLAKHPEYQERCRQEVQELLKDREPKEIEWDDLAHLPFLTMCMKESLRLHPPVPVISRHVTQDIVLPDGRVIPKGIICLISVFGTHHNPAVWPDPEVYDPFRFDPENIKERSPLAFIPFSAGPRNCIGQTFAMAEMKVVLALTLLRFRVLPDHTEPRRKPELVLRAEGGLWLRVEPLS
Outline: (§1)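 E. coli membranes expressing human enzyme (100 μg/mL protein) with luciferin-derivative substrate, 60 min at room temperature, then luminescence read. CYP4F2: 50 mM KPO4 pH 7.4, 2.5 μM substrate, 1 mM NADPH. CYP4A11: 100 mM Tris-HCl pH 7.5, 60 μM substrate, NADP+/glucose 6-phosphate regenerating system.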

human CYP4A11 = biological target: T2, human CYP4A11 (Homo sapiens, UniProt Q02928); assay: CYP4A11 inhibition test (Test Example 1); type: biochemical; settings: Escherichia coli membrane fraction expressing human CYP4A11, 60 μM luciferine derivative, room temperature 60 minutes, luminescence
T2 construct: host or cells: Escherichia coli (membrane fraction)
T2 sequence (Q02928 5-519): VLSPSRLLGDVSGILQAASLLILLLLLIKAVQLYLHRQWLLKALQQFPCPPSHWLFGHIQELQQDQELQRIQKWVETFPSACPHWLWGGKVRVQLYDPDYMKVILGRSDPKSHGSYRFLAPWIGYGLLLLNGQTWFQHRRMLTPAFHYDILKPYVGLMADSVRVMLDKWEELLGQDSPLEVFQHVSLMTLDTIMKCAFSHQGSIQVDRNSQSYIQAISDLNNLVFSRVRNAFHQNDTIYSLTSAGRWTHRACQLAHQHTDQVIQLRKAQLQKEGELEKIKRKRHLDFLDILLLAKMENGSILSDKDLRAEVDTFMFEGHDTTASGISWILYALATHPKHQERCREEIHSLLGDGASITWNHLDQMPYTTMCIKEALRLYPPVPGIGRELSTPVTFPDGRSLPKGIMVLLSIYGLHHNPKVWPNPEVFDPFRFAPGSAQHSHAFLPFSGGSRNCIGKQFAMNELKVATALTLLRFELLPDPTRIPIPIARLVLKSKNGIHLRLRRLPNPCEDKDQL
Outline: as §1

Compound	IC50 (human CYP4F2) [nM]	IC50 (human CYP4A11) [nM]
CC(=O)N1C2CCC1CC(COc1ccc(-c3ccn[nH]3)nc1)C2 (centres unmarked) [Example 14-3]	990	260
CC(=O)N1CC2(CC(COc3ccc(-c4ccn[nH]4)nc3)C2)C1 [Example 14-4]	360	4200
CC(=O)N[C@H]1CC[C@H](COc2ccc(-c3ccn[nH]3)nc2)CC1 [Example 14-5]	220	610
CC(=O)Nc1cc(COc2ccc(-c3ccn[nH]3)nc2)ccn1 [Example 14-6]	210	6100
CCS(=O)(=O)c1cc(COc2ccc(-c3ccn[nH]3)nc2)ccn1 [Example 14-8]	60	53
O=S(=O)(CCCN1CCCC1)c1cccc(COc2ccc(-c3ccn[nH]3)nc2)c1 [Example 14-9]	99	2900
O=S(=O)(CCCN1CCOCC1)c1cccc(COc2ccc(-c3ccn[nH]3)nc2)c1 [Example 14-10]	11	260
O=S(=O)(CC1CC1)c1cc(COc2ccc(-c3ccn[nH]3)nc2)ccn1 [Example 14-11]	17	30
Cc1ccc(COc2ccc(-c3ccn[nH]3)nc2)cc1S(C)(=O)=O [Example 14-12]	31	270
CS(=O)(=O)c1cccc(CCOc2ccc(-c3ccn[nH]3)nc2)c1 [Example 14-13]	98	2500
CS(=O)(=O)c1ccccc1OCCOc1ccc(-c2ccn[nH]2)nc1 [Example 14-14]	1400	6100
CS(=O)(=O)c1ccccc1CCOc1ccc(-c2ccn[nH]2)nc1 [Example 14-15]	1500	78
CC(=O)N(C)[C@H]1CC[C@@H](COc2ccc(-c3ccn[nH]3)nc2)CC1 [Example 15-1, N-Methyl-N-[cis-4-({[6-(1H-pyrazol-5-yl)pyridin-3-yl]oxy}methyl)cyclohexyl]acetamide]	260	690
CC(=O)N[C@H]1C[C@@H](COc2ccc(-c3ccn[nH]3)nc2)C1 [Example 16-1-1, N-[cis-3-({[6-(1H-Pyrazol-5-yl)pyridin-3-yl]oxy}methyl)cyclobutyl]acetamide]	17	5400
CC(=O)N[C@H]1C[C@H](COc2ccc(-c3ccn[nH]3)nc2)C1 [Example 16-1-2, N-[trans-3-({[6-(1H-Pyrazol-5-yl)pyridin-3-yl]oxy}methyl)cyclobutyl]acetamide]	64	8100
CC(=O)N1CC(CCOc2ccc(-c3ccn[nH]3)nc2)C1 [Example 16-2, 1-[3-(2-{[6-(1H-Pyrazol-5-yl)pyridin-3-yl]oxy}ethyl)azetidin-1-yl]ethan-1-one]	790	10000
CC(=O)N1CC(CCCOc2ccc(-c3ccn[nH]3)nc2)C1 [Example 16-3]	15	4600
CS(=O)(=O)c1cc(F)cc(COc2ccc(-c3ccn[nH]3)nc2)c1 [Example 16-5]	310	79
CC(=O)N(C)[C@H]1C[C@@H](COc2ccc(-c3ccn[nH]3)nc2)C1 [Example 17-1-1, N-Methyl-N-[cis-3-({[6-(1H-pyrazol-5-yl)pyridin-3-yl]oxy}methyl)cyclobutyl]acetamide]	20	2000
CC(=O)N(C)[C@H]1C[C@H](COc2ccc(-c3ccn[nH]3)nc2)C1 [Example 17-1-2, N-Methyl-N-[trans-3-({[6-(1H-pyrazol-5-yl)pyridin-3-yl]oxy}methyl)cyclobutyl]acetamide]	19	2700
CN(C)S(=O)(=O)c1cc(COc2ccc(-c3ccn[nH]3)nc2)ccc1F [Example 18-1, 2-Fluoro-N,N-dimethyl-5-({[6-(1H-pyrazol-5-yl)pyridin-3-yl]oxy}methyl)benzene-1-sulfonamide]	140	18
CN(C)S(=O)(=O)c1cc(COc2ccc(-c3ccn[nH]3)nc2)ccc1Cl [Example 18-2]	140	58
O=S(=O)(CC1CC1)c1cccc(COc2ccc(-c3ccn[nH]3)nc2)c1 [Example 18-3]	27	24

Compound	IC50 (human CYP4F2) [nM]	IC50 (human CYP4A11) [nM]
O=C(CS(=O)(=O)c1cccc(COc2ccc(-c3ccn[nH]3)nc2)c1)N1CCC1 [Example 18-4]	85	76
O=C(CS(=O)(=O)c1cccc(COc2ccc(-c3ccn[nH]3)nc2)c1)N1CCCC1 [Example 18-5]	47	140
CCS(=O)(=O)c1cccc(COc2ccc(-c3ccn[nH]3)nc2)c1 [Example 18-6]	93	27
CC(C)(C)OC(=O)Nc1cccc(COc2ccc(-c3ccn[nH]3)nc2)c1 [Example 18-7]	95	230
CS(=O)(=O)c1cccc(COc2ccc(-c3ccn[nH]3)nc2)c1 [Example 18-8, 5-[(3-Methylsulfonylphenyl)methoxy]-2-(1H-pyrazol-5-yl)pyridine]	260	63
Nc1cccc(COc2ccc(-c3ccn[nH]3)nc2)c1 [Example 19-1, 3-({[6-(1H-Pyrazol-5-yl)pyridin-3-yl]oxy}methyl)aniline]	46	620
CC(=O)N1CC[C@@H](COc2ccc(-c3ccn[nH]3)nc2)C1 [Example 20-1, 1-[(3R)-3-({[6-(1H-Pyrazol-5-yl)pyridin-3-yl]oxy}methyl)pyrrolidin-1-yl]ethan-1-one]	240	1600
CC(=O)N1CC[C@H](COc2ccc(-c3ccn[nH]3)nc2)C1 [Example 20-2]	240	1600
CC(=O)N1CCC[C@@H]1CCOc1ccc(-c2ccn[nH]2)nc1 [Example 20-3, 1-[(2R)-2-(2-{[6-(1H-Pyrazol-5-yl)pyridin-3-yl]oxy}ethyl)pyrrolidin-1-yl]ethan-1-one]	2800	1400
CC(=O)N(C)[C@H]1CC[C@@H](Oc2ccc(-c3ccn[nH]3)nc2)CC1 [Example 20-4]	180	2400
CC(=O)N(C)[C@H]1CC[C@H](Oc2ccc(-c3ccn[nH]3)nc2)CC1 [Example 20-5]	150	6400
CC(=O)N[C@H]1CC[C@@H](Oc2ccc(-c3ccn[nH]3)nc2)CC1 [Example 20-6]	310	22000
CC(=O)N[C@H]1CC[C@H](Oc2ccc(-c3ccn[nH]3)nc2)CC1 [Example 20-7]	69	35000
CC(=O)NCC12CC(COc3ccc(-c4ccn[nH]4)nc3)(C1)C2 [Example 21-1, N-{[3-({[6-(1H-Pyrazol-5-yl)pyridin-3-yl]oxy}methyl)bicyclo[1.1.1]pentan-1-yl]methyl}acetamide]	150	1200
CC(=O)N(C)CC12CC(COc3ccc(-c4ccn[nH]4)nc3)(C1)C2 [Example 22-1, N-Methyl-N-{[3-({[6-(1H-pyrazol-5-yl)pyridin-3-yl]oxy}methyl)bicyclo[1.1.1]pentan-1-yl]methyl}acetamide]	19	390
CC(=O)N1CCC(COc2ccc(-c3[nH]ncc3F)nc2)CC1 [Example 23-1, 1-[4-({[6-(4-Fluoro-1H-pyrazol-5-yl)pyridin-3-yl]oxy}methyl)piperidin-1-yl]ethan-1-one]	13	71
Clc1cn[nH]c1-c1ccc(OCC2CCOCC2)cn1 [Example 23-5]	61	52
Clc1cn[nH]c1-c1ccc(OCCC2CCOCC2)cn1 [Example 23-6]	170	150
CC(=O)N1CCC(COc2cnc(-c3[nH]ncc3C)c(F)c2)CC1 [Example 24-2]	450	850
CC(=O)N1CCC(COc2cnc(-c3ccn[nH]3)cc2C)CC1 [Example 24-3]	35	120
CC(=O)N1CCC(COc2ccc(-c3ccn[nH]3)nc2C)CC1 [Example 24-4]	590	8600
COC(=O)N1CCC(CCOc2cnc(-c3ccn[nH]3)c(F)c2)CC1 [Example 24-6]	25	64
COc1cn[nH]c1-c1ccc(OCc2cccc(S(C)(=O)=O)c2)cn1 [Example 24-8]	2600	440
